Measurements: US20080103089A1, “Compounds, Compositions, Formulations and Process for Preparation Thereof and Method of Treatment and Management of Acidity and Related Disorders” (priority 2004, published 2008)

Legend:
Assay type in all cases: physicochemical
[1] = Determination of Acid Neutralization Capacity (ANC) by titration against 1N HCl
Method: About 20 ml of 1N NaOH was added to about or less than 1 gram dry weight of the active ingredient (Protein isolate or protein rich extract) with about 10 ml water content. In cold treatment, the mixture was kept at room temperature overnight until the sedimented coagulum was seen to have been dispersed evenly in a solution. In a hot treatment, the mixture was kept in an oven at 80 degrees Celsius, volume restored to 30 ml by addition of distilled water and titrated after various stages of degradation after the period of treatment. Alkali remaining in excess was either neutralized by titrating against 1N HCl until pH dropped to 10.8 or by dialyzing the mixture using gelatin membrane against 700 milliliter portions of distilled water three to four times until the dialysate contained little alkalinity.
Acid Neutralization Capacity was noted as milliequivalents of HCl neutralized to maintain the pH at 3 for two hours and expressed as per gram dry weight of the active antacid ingredient or per dose of the antacid composition containing the active ingredient. Total volume of the reactants were adjusted to 30 ml or 40 ml and titrated against 1N HCl and pH was noted after each small dropwise addition. The pH was measured by a pH meter.
In titration of distilled water, it was observed that pH of the water raised rapidly to 10.8 with addition of a single drop. Similarly, while titrating 1N NaOH against 1N HCl, fall in pH from 12.2 to 10.8 was gradual. However, thereafter, just one drop was sufficient to lower the pH to neutral. Thus, it was clear that acid neutralized by the products within the pH range of 3 to 10.8 was due to Acid Neutralization Capacity when solutions of antacid active ingredients covered in the examples were titrated for determination of their ANC.
When alkali treated mixtures were titrated, acid required to bring down the pH to 10.8 was considered as acid required to neutralize the unreacted NaOH. Acid required to neutralize pH from 10.8 up to pH 3 was taken for calculation of ANC.
Whenever desired, the alkali treated mixture was dialysed through gelatin membrane against about 700 milliliters of distilled water each time three to four times. Significant quantity of alkalinity appeared in first two dialyses in first two hours. Third dialysis, usually done for several hours overnight usually contained very little of alkalinity in the range of pH 10.8 and above.

[2] = Titration of Sodium Glutamate solution
Source text: Crystalline Sodium Glutamate gave solution of pH 6.7. It took, per milliequivalent of Sodium Glutamate used, little less than 1 milliequivalent of HCl to bring the pH from 6.7 down to 3 and about 1 milliequivalent of […] the pH from 6.7 to 10.8. Here, the crystalline Sodium Glutamate solution of pH 6.7 represents an intermediate form of alkaline protein.

[3] = Titration of Glutamic acid in water with NaOH
Source text: About one milliequivalent of NaOH was neutralized per milliequivalent of Glutamic acid in water to raise the pH of its aqueous solution from 2.9 to about 5.

With Casein as the molecule, how does the ANC ([1]; after cold alkali treatment (1N NaOH, room temperature overnight), pH 10.8 to 3) read?
Its ANC is 1.5 milliequivalents of HCl per gr.

What about the ANC ([1]; after hot alkali treatment (80 degrees Celsius) of 2 days) of the same molecule?
Its ANC is 4.88 milliequivalents of HCl per gr.

What about the ANC ([1]; after hot alkali treatment (80 degrees Celsius) of 6 days) of the same molecule?
Its ANC is 8 milliequivalents of HCl per gr.

And the ANC ([1]; untreated protein isolate, HCl neutralized to maintain pH 3 for two hours)?
The ANC was 0.12 per gram.

With `N[C@@H](CCC(=O)[O-])C(=O)[O-].[Na+].[Na+]` [Sodium Glutamate] as the molecule, how does the pH of solution ([2]; crystalline Sodium Glutamate in solution) read?
Its pH of solution is 6.7.

What about the “HCl to bring the pH down” value ([2]; pH from 6.7 down to 3) of the same molecule?
The value was “less than 1 milliequivalent per milliequiv”.

What about the “HCl to raise the pH” value ([2]; pH from 6.7 to 10.8) of the same molecule?
Its value is “about 1 milliequivalent per milliequiv”.

Which NaOH consumed ([3]; from pH 5 to 10.9) does the source give for `N[C@@H](CCC(=O)O)C(=O)O` [Glutamic acid] here?
The NaOH consumed was “about 1.2 milliequivalents per milliequi”.

And the “pH of aqueous solution” value ([3]; in water, before titration)?
Its value is 2.9.

What about the NaOH neutralized ([3]; to raise pH from 2.9 to about 5) of the same molecule?
Its NaOH neutralized is “About one”.
